According to patent publication US4557754A, “Bis-(N,N-dimethyl-N-carbodecyloxymethyl-N-ethylene-ammonium)-sulphide dichloride and use thereof” (priority 1980, dated 1985):

Tests used:
Rats [1] = conditions: cited from earlier work
lettuce = assay: Effect on development of sprouts, agar medium in Petri dishes; type: in vivo; parameters: Germination capacity, lettuce: unit not given here; conditions: for Plant parts length, lettuce root / Plant parts length, lettuce stalk: 7 days
Experimental: (§1) The effect of the preparation was studied for 7 days under laboratory conditions on lettuce and oats plants.
(§2) The standards used in the tests were chlorocholine chloride whose structure is close to the studied chemical compound and heteroauxin phytohormone. Experiments on lettuce and oats growing in the presence of the above substances at a concentration of from 0.1 to 0.00001 wt.% were performed in Petri dishes with the use of agar medium as a substrate.
(§3) The seeds were placed into Petri dishes on solidified agar containing the test substance in the concentration indicated. The seeds germinated in a thermostat for 3 days at a temperature of from 22° to 24° C. Petri dishes with the sprouts were then placed for further growth into an exhausting hood with illumination for 4 days, whereafter the length of the roots, stalks and leaves of the sprouts was measured.

oats = assay: as above; type: in vivo; parameters: Germination capacity, oats: unit not given here; conditions: for Plant parts length, oats leaf / Plant parts length, oats root: 7 days
Experimental: as §1, §2, §3

[2] = Stability of aqueous solutions / retention of antimicrobial activity; type: physicochemical
Excerpt: Aqueous solutions of the preparation were stable.

Staphylococcus albus = assay: Antimicrobial activity, series dilutions in liquid nutrient media; type: cell-based; conditions: 20 strains
Experimental: (§4) Antimicrobial properties of said preparation were investigated by a classical method of series dilutions in standard liquid nutrient media.
(§5) The activity of the above preparation was tested by its action on staphylococci, Escherichia coli, and intestinal group microorganisms.

Salmonella sp. = assay: as above; type: cell-based; conditions: 7 strains
Experimental: as §4, §5

Proteus vulgaris = assay: as above; type: cell-based; conditions: 2 strains
Experimental: as §4, §5

Shigella sonnei = assay: as above; type: cell-based; conditions: 7 strains
Experimental: as §4, §5

Staphylococcus aureus = assay: as above; type: cell-based; conditions: 20 strains
Experimental: as §4, §5

Proteus morgani = assay: as above; type: cell-based; conditions: 4 strains
Experimental: as §4, §5

Escherichia coli = assay: as above; type: cell-based; conditions: 10 strains
Experimental: as §4, §5

Rats [3] = assay: Acute toxicity test; type: in vivo; conditions: 24 hours
Experimental: (§6) Bis-(N,N-dimethyl-N-carbodecyloxymethyl-N-ethyleneammonium)-sulphide dichloride was tested for toxicity in an acute test on rats of both sexes with an average mass of 200 to 250 g and on white mice of both sexes with an average mass of 22 to 25 g with enteral and intraperitoneal administrations. Aqueous solutions of the above preparation (from 10 to 5000 mg per kg of animal weight) were used for enteral and intraperitoneal administration. Each dosage was tried on five animals. Animal death rate was registered 24 hours after the administration of the above solutions.

Acute toxicity test [4] = type: in vivo; conditions: rat, in vivo, rats
Experimental: as §6

Mice = assay: Acute toxicity test; type: in vivo, white mice; conditions: for LD100: mice, 24 hours
Experimental: as §6

Acute toxicity test [5] = type: in vivo, white mice; conditions: mouse, in vivo, mice, 24 hours
Experimental: as §6

Solubility = type: physicochemical
Rats [6] = assay: Toxicity (LD50) compared with chlorocholine chloride; type: in vivo; conditions: versus chlorocholine chloride
[7] = tested on: staphylococci, Escherichia coli, and intestinal group microorganisms; assay: Antimicrobial action, overall; type: cell-based; conditions: analysis of the test results
Experimental: as §4, §5

calves = assay: Chronic toxicity test, intravenous; type: in vivo; conditions: 10 mg per kg daily for 30 days
Excerpt: Test group consisted of 10 calves, the other 10 calves to which the above preparation was not prescribed making up a control group. The calves of both groups were kept in the same conditions. General state and behaviour of the calves, rate of gain were controlled and peripheric blood counts (hemoglobin, erythrocytes, leucocytes, thrombocytes, differential blood count) were made daily during the test. To determine the functional state of liver, kidneys, and pancreas, certain biochemical characteristics of the urine (protein, sugar, and biliary pigments content) and blood (sugar, cholesterol, bilirubin, urea, alkaline phosphatase, and chlorides content) were studied.
At the end of the test period the test group animals were killed and their internal organs were studied by macro- and microscopic techniques.

[8] = Treatment of inflammatory diseases of the middle ear; type: in vivo, men; conditions: for Recovery with comparator solutions: in a great number of cases; for Irrigations of the tympanic cavity required, relative to the preparation: solutions, for the same purpose
Experimental: was tested in treating inflammatory diseases of the middle ear in men: acute otitis and antritis media purulenta, chronic purulent mesotympanitis, and chronic purulent epitympanitis.
The treatment was applied to 65 patients.
The treatment procedure consisted in thorough and copious irrigation (with the help of Hartmann's cannula or blunt-ended needle) of the middle ear, attic, and Eustachian tube for maximum removal of purulent exudate and cholesteatoma masses.

[9] = read-out: Average bactericidal concentration
[10] = read-out: Average bacteriostatic concentration

C[N+](C)(C)CCCl.[Cl-] [Chlorocholine chloride]
LD50 (Rats [1]): 250 mg/kg | Germination capacity, lettuce (lettuce; 0.0001 wt. %): 98 | Plant parts length, lettuce root (lettuce; 0.0001 wt. %): 104 | Plant parts length, lettuce stalk (lettuce; 0.0001 wt. %): 98 | Germination capacity, lettuce (lettuce; 0.001 wt. %): 94 | Plant parts length, lettuce root (lettuce; 0.001 wt. %): 102 | Plant parts length, lettuce stalk (lettuce; 0.001 wt. %): 110 | Germination capacity, lettuce (lettuce; 0.01 wt. %): 94 | Inhibition of root development (lettuce; 0.01 wt. %): does not inhibit root development | Plant parts length, lettuce root (lettuce; 0.01 wt. %): 101 | Plant parts length, lettuce stalk (lettuce; 0.01 wt. %): 99 | Germination capacity, oats (oats; 0.0001 wt. %): 91 | Plant parts length, oats leaf (oats; 0.0001 wt. %): 94 | Plant parts length, oats root (oats; 0.0001 wt. %): 102 | Germination capacity, oats (oats; 0.001 wt. %): 99 | Plant parts length, oats leaf (oats; 0.001 wt. %): 97 | Plant parts length, oats root (oats; 0.001 wt. %): 92 | Germination capacity, oats (oats; 0.01 wt. %): 98 | Plant parts length, oats leaf (oats; 0.01 wt. %): 96 | Plant parts length, oats root (oats; 0.01 wt. %): 94

O=C(O)Cc1c[nH]c2ccccc12 [Heteroauxine]
Germination capacity, lettuce (lettuce; 0.0001 wt. %): 81 | Plant parts length, lettuce root (lettuce; 0.0001 wt. %): 88 | Plant parts length, lettuce stalk (lettuce; 0.0001 wt. %): 92 | Germination capacity, lettuce (lettuce; 0.001 wt. %): 55 | Plant parts length, lettuce root (lettuce; 0.001 wt. %): 27 | Plant parts length, lettuce stalk (lettuce; 0.001 wt. %): 24 | Germination capacity, lettuce (lettuce; 0.01 wt. %): 0 | Plant parts length, lettuce root (lettuce; 0.01 wt. %): 0 | Plant parts length, lettuce stalk (lettuce; 0.01 wt. %): 0 | Germination capacity, oats (oats; 0.0001 wt. %): 100 | Plant parts length, oats leaf (oats; 0.0001 wt. %): 92 | Plant parts length, oats root (oats; 0.0001 wt. %): 88 | Germination capacity, oats (oats; 0.001 wt. %): 102 | Plant parts length, oats leaf (oats; 0.001 wt. %): 67 | Plant parts length, oats root (oats; 0.001 wt. %): 28 | Germination capacity, oats (oats; 0.01 wt. %): 84 | Plant parts length, oats leaf (oats; 0.01 wt. %): 35 | Plant parts length, oats root (oats; 0.01 wt. %): 19

CCCCCCCCCCOC(=O)C[N+](C)(C)CCSCC[N+](C)(C)CC(=O)OCCCCCCCCCC [bis-(N,N-dimethyl-N-carbodecyloxymethyl-N-ethyleneammonium)-sulphide dichloride]
Activity after storage of solutions ([2]; 1% and 0.1% solutions, 6 months): did not lose its activity | Stability of aqueous solutions ([2]; aqueous solutions): stable | Antimicrobial activity as a function of pH ([2]; pH 5 to 8): remains unchanged | Antimicrobial activity after autoclaving ([2]; single and double autoclaving, 60 minutes at 2.5 atm): did not alter the antimicrobial activity | Germination capacity, lettuce (lettuce; 0.00001 wt. %): 86 | Plant parts length, lettuce root (lettuce; 0.00001 wt. %): 91 | Plant parts length, lettuce stalk (lettuce; 0.00001 wt. %): 91 | Germination capacity, lettuce (lettuce; 0.0001 wt. %): 89 | Plant parts length, lettuce root (lettuce; 0.0001 wt. %): 96 | Plant parts length, lettuce stalk (lettuce; 0.0001 wt. %): 99 | Germination capacity, lettuce (lettuce; 0.001 wt. %): 100 | Plant parts length, lettuce root (lettuce; 0.001 wt. %): 88 | Plant parts length, lettuce stalk (lettuce; 0.001 wt. %): 91 | Germination capacity, lettuce (lettuce; 0.01 wt. %): 34 | Plant parts length, lettuce root (lettuce; 0.01 wt. %): 15 | Plant parts length, lettuce stalk (lettuce; 0.01 wt. %): 38 | Germination capacity, lettuce (lettuce; 0.1 wt. %): 0 | Plant parts length, lettuce root (lettuce; 0.1 wt. %): 2 | Plant parts length, lettuce stalk (lettuce; 0.1 wt. %): 0 | Herbicidal action (lettuce; 0.1 wt.%, dicotyledonous plants): selective herbicide | Phytoncidal action (lettuce; lettuce (dicotyledonous)): more phytoncidal | Germination capacity, oats (oats; 0.00001 wt. %): 91 | Plant parts length, oats leaf (oats; 0.00001 wt. %): 105 | Plant parts length, oats root (oats; 0.00001 wt. %): 100 | Germination capacity, oats (oats; 0.0001 wt. %): 87 | Plant parts length, oats leaf (oats; 0.0001 wt. %): 99 | Plant parts length, oats root (oats; 0.0001 wt. %): 86 | Germination capacity, oats (oats; 0.001 wt. %): 87 | Plant parts length, oats leaf (oats; 0.001 wt. %): 96 | Plant parts length, oats root (oats; 0.001 wt. %): 88 | Germination capacity, oats (oats; 0.01 wt. %): 86 | Plant parts length, oats leaf (oats; 0.01 wt. %): 93 | Plant parts length, oats root (oats; 0.01 wt. %): 54 | Germination capacity, oats (oats; 0.1 wt. %): 87 | Plant parts length, oats leaf (oats; 0.1 wt. %): 55 | Plant parts length, oats root (oats; 0.1 wt. %): 6 | Inhibition of growth of roots versus leaves (oats; oats (monocotyledonous)): more strongly inhibits the growth of roots than that of leaves | MBC (Staphylococcus albus; [9]): 1.67 µg/mL | MIC (Staphylococcus albus; [10]): 0.6 µg/mL | MBC (Salmonella sp.; [9]): 31.2 µg/mL | MIC (Salmonella sp.; [10]): 31.2 µg/mL | MBC (Proteus vulgaris; [9]): 62.5 µg/mL | MIC (Proteus vulgaris; [10]): 62.5 µg/mL | MBC (Shigella sonnei; [9]): 28.4 µg/mL | MIC (Shigella sonnei; [10]): 5.85 µg/mL | MBC (Staphylococcus aureus; [9]): 2.63 µg/mL | MIC (Staphylococcus aureus; [10]): 0.76 µg/mL | MBC (Proteus morgani; [9]): 50.7 µg/mL | MIC (Proteus morgani; [10]): 50.7 µg/mL | MBC (Escherichia coli; [9]): 6.4 µg/mL | MIC (Escherichia coli; [10]): 3.9 µg/mL | LD100 (Rats [3]; enteral): 3500 mg/kg | LD100 (Rats [3]; intraperitoneal): 80.0 mg/kg | LD50 at 24 h (Acute toxicity test [4]; ip, intraperitoneal): 67.7 mg/kg | LD50 at 24 h (Acute toxicity test [4]; po, enteral): 2660 mg/kg | Toxicity group, overall (Mice; analysis of the test results (mice, rats, calves)): low-toxic | LD100 (Mice; enteral): 2500 mg/kg | LD100 (Mice; intraperitoneal): 70.0 mg/kg | LD50 at 24 h (Acute toxicity test [5]; ip, intraperitoneal): 54.1 mg/kg | LD50 at 24 h (Acute toxicity test [5]; po, enteral): 1220 mg/kg | Solubility in diethyl ether (Solubility; diethyl ether): insoluble | Solubility in lower alcohols (Solubility; lower alcohols): soluble | Solubility in water (Solubility; water): soluble | Toxicity compared with chlorocholine chloride (Rats [6]): much lower | Antimicrobial action, overall [7]: strong antimicrobial action | Pathologic changes at autopsy, macro- and microscopic study (calves): no pathologic changes | Changes in the calves under chronic test conditions (calves; 0.2 wt.% in sodium chloride solution): did not cause significant changes

CC1(C)S[C@@H]2[C@H](NC(=O)Cc3ccccc3)C(=O)N2[C@H]1C(=O)O [penicillin]
Recovery with comparator solutions [8]: did not result in recovery | Irrigations of the tympanic cavity required, relative to the preparation [8]: twice as many or even more

[H]/N=C(/N)N[C@H]1[C@H](O)[C@@H](O)[C@H](O[C@@H]2O[C@@H](C)[C@](O)(C=O)[C@H]2O[C@@H]2O[C@@H](CO)[C@H](O)[C@@H](O)[C@@H]2NC)[C@@H](N/C(N)=N\[H])[C@@H]1O [streptomycin]
Recovery with comparator solutions [8]: did not result in recovery | Irrigations of the tympanic cavity required, relative to the preparation [8]: twice as many or even more
